Results from ChEMBL document CHEMBL4732067, “Synthesis and evaluation of new compounds bearing 3-(4-aminopiperidin-1-yl)methyl magnolol scaffold as anticancer agents for the treatment of non-small cell lung cancer via targeting autophagy” (Eur J Med Chem, 2021).

Experiments:
HCC827 = assay: Antiproliferative activity against human HCC827 cells assessed as reduction in cell viability after 72 hrs by MTT assay; type: functional, cell-based; conditions: HCC827, 72 h
NCI-H1975 = assay: Antiproliferative activity against human NCI-H1975 cells assessed as reduction in cell viability after 72 hrs by MTT assay; type: functional, cell-based; conditions: NCI-H1975, 72 h
NCI-H460 = assay: Antiproliferative activity against human NCI-H460 cells assessed as reduction in cell viability after 72 hrs by MTT assay; type: functional, cell-based; conditions: NCI-H460, 72 h
A549 = assay: Antiproliferative activity against human A549 cells expressing wild type EGFR assessed as reduction in cell viability after 72 hrs by MTT assay; type: functional, cell-based; conditions: A549, 72 h
[1] = Antiproliferative activity against human SPCA1 cells expressing wild type EGFR assessed as reduction in cell viability after 72 hrs by MTT assay; type: functional, cell-based; conditions: SPCA1, 72 h
NCI-H1650 = assay: Antiproliferative activity against human NCI-H1650 cells expressing EGFR mutant assessed as reduction in cell viability after 72 hrs by MTT assay; type: functional, cell-based; conditions: NCI-H1650, 72 h
NCI-H441 = assay: Antiproliferative activity against human NCI-H441 cells […] assessed as reduction in cell viability after 72 hrs by MTT assay; type: functional, cell-based; conditions: NCI-H441, 72 h
[2] = Metabolic stability in human liver microsomes assessed as half life; type: ADME, Microsome
[3] = Metabolic stability in human liver microsomes assessed as intrinsic clearance per gram protein; type: ADME, Microsome
L929 = assay: Cytotoxicity against mouse L929 cells; type: cell-based
[4] = Toxicity in nude BALB/c mouse xenografted with C26 cells assessed as body weight loss at 60 mg/kg, po administered once daily and measured every two days; type: organism-based; conditions: in vivo
[5] = Antitumor activity against mouse C26 cells xenografted in BALB/c mouse assessed as tumor growth inhibition at 50 mg/kg, po administered once daily and measured every two days by caliper method relative to control; type: functional; conditions: 48 h, read-out: TGI
[6] = Toxicity in nude BALB/c mouse xenografted with C26 cells assessed as change in body weight at 50 mg/kg, po administered once daily and measured every two days; type: organism-based; conditions: in vivo
[7] = Toxicity in nude BALB/c mouse xenografted with C26 cells assessed as abnormalities in liver size and morphology at 50 mg/kg, po administered once daily; type: organism-based; conditions: in vivo
[8] = Toxicity in nude BALB/c mouse xenografted with C26 cells assessed as abnormalities in kidney size and morphology at 50 mg/kg, po administered once daily; type: organism-based; conditions: in vivo
[9] = Toxicity in nude BALB/c mouse xenografted with C26 cells assessed as abnormalities in lung size and morphology at 50 mg/kg, po administered once daily; type: organism-based; conditions: in vivo
[10] = Toxicity in nude BALB/c mouse xenografted with C26 cells assessed as abnormalities in heart size and morphology at 50 mg/kg, po administered once daily; type: organism-based; conditions: in vivo

| SMILES | IC50 (HCC827) [µM] | IC50 (NCI-H1975) [µM] | IC50 (NCI-H460) [µM] | also measured |
| --- | --- | --- | --- | --- |
| C=CCc1ccc(O)c(-c2cc(CC=C)ccc2O)c1 [MAGNOLOL] | 94.7 | 87.3 | 95.6 | IC50 (A549): 82.4 µM; IC50 [1]: 92.5 µM; IC50 (NCI-H1650): 66.3 µM; IC50 (NCI-H441): 65.8 µM; half-life [2]: 14.7 min; CLint [3]: 94 mL/min/g |
| C=CCc1ccc(OCC)c(-c2cc(CC=C)cc(CN3CCC(NC(=O)[C@@H](N)Cc4ccccc4)CC3)c2O)c1 | 0.82 | 1.45 | 1.11 | Activity [4]: Toxic; IC50 (A549): 2 µM; IC50 [1]: 1.94 µM; IC50 (NCI-H1650): 2.34 µM; IC50 (NCI-H441): 2.12 µM; half-life [2]: 24.6 min; CLint [3]: 56.4 mL/min/g; IC50 (L929): 6.24 µM; inhibition in vivo at 50 mg/kg [5]: 57.4%; Activity [6]: Toxic; Activity [7]: Non-Toxic; Activity [8]: Non-Toxic; Activity [9]: Non-Toxic; Activity [10]: Non-Toxic |
| C=CCc1ccc(O)c(-c2cc(CC=C)cc(CN3CCCC3)c2O)c1 | > 20 | > 20 | > 20 | – |
| C=CCc1ccc(OC(C)C)c(-c2cc(CC=C)cc(CN3CCC(NC(=O)[C@@H](N)Cc4ccccc4)CC3)c2O)c1 | 0.85 | 2.76 | 1.32 | IC50 (A549): 1.22 µM; IC50 [1]: 1.35 µM; IC50 (NCI-H1650): 1.68 µM; IC50 (NCI-H441): 2.04 µM; half-life [2]: 21.7 min; CLint [3]: 63.8 mL/min/g; IC50 (L929): 6.24 µM; inhibition in vivo at 50 mg/kg [5]: 62.4%; Activity [6]: Toxic; Activity [7]: Non-Toxic; Activity [8]: Non-Toxic; Activity [9]: Non-Toxic; Activity [10]: Non-Toxic |
| C=CCc1ccc(OC2CCCC2)c(-c2cc(CC=C)cc(CN3CCC(N)CC3)c2O)c1 | 3.51 | 6.37 | 5.85 | – |
| C=CCc1ccc(OCCC)c(-c2cc(CC=C)cc(CN3CCC(N)CC3)c2O)c1 | 5.27 | 4.97 | 4.85 | – |
| C#CCOc1ccc(CC=C)cc1-c1cc(CC=C)cc(CN2CCC(N)CC2)c1O | > 20 | > 20 | > 20 | – |
| C=CCc1ccc(O)c(-c2cc(CC=C)cc(CN3CC[C@H](O)C3)c2O)c1 | > 20 | > 20 | > 20 | – |
| C=CCc1ccc(O)c(-c2cc(CC=C)cc(Cn3cc(N)cn3)c2O)c1 | 15.4 | > 20 | > 20 | – |
| C=CCCOc1ccc(CC=C)cc1-c1cc(CC=C)cc(CN2CCC(N)CC2)c1O | 4.3 | 12.2 | 6.12 | – |
| C=CCc1ccc(O)c(-c2cc(CC=C)cc(CN3CCC(NC(=O)[C@@H](N)CO)CC3)c2O)c1 | 6.24 | 7.38 | 6.57 | – |
| C=CCCCCOc1ccc(CC=C)cc1-c1cc(CC=C)cc(CN2CCC(N)CC2)c1O | 4.48 | 14 | 6.88 | – |
| C=CCc1ccc(OC(C)C)c(-c2cc(CC=C)cc(CN3CCC(N)CC3)c2OC(C)C)c1 | 2.05 | 4.14 | 2.87 | – |
| C=CCc1ccc(OCCCO)c(-c2cc(CC=C)cc(CN3CCC(N)CC3)c2O)c1 | 6.29 | 6.98 | 6.66 | – |
| C=CCc1ccc(OC)c(-c2cc(CC=C)cc(CN3CCC(N)CC3)c2O)c1 | 3.44 | 4.1 | 4.27 | – |

The next lines start with results.

| IC50 (HCC827) [µM] | IC50 (NCI-H1975) [µM] | IC50 (NCI-H460) [µM] | SMILES | also measured |
| --- | --- | --- | --- | --- |
| 0.94 | 1.43 | 1.26 | C=CCc1ccc(OCC)c(-c2cc(CC=C)cc(CN3CCC(N)CC3)c2O)c1 | IC50 (A549): 3.05 µM; IC50 [1]: 3.46 µM; IC50 (NCI-H1650): 4.15 µM; IC50 (NCI-H441): 2.98 µM; half-life [2]: 130 min; CLint [3]: 10.7 mL/min/g; IC50 (L929): 1.78 µM |
| 4.74 | 4.08 | 4.32 | C=CCc1ccc(O)c(-c2cc(CC=C)cc(CN3CCC(NC(=O)[C@H](N)Cc4ccccc4)CC3)c2O)c1 | – |
| > 20 | > 20 | > 20 | C=CCc1ccc(O)c(-c2cc(CC=C)cc(CN3CCC(NC(=O)CCCCCN)CC3)c2O)c1 | – |
| > 20 | > 20 | > 20 | C=CCc1ccc(O)c(-c2cc(CC=C)cc(CN3CCC(NC(=O)CCN)CC3)c2O)c1 | – |
| 2.12 | 3.45 | 3.64 | C=CCc1ccc(OCC)c(-c2cc(CC=C)cc(CN3CCC(N)CC3)c2OCC)c1 | – |
| 9.05 | 10.3 | 8.32 | C=CCc1ccc(O)c(-c2cc(CC=C)cc(CN3CCC(NC(=O)[C@H](N)CO)CC3)c2O)c1 | – |
| > 20 | > 20 | > 20 | C=CCc1ccc(OCCCCOC(C)=O)c(-c2cc(CC=C)cc(CN3CCC(N)CC3)c2O)c1 | – |
| 2.44 | 5.72 | 2.76 | C=CCc1ccc(OCC2CCCO2)c(-c2cc(CC=C)cc(CN3CCC(N)CC3)c2O)c1 (stereo unspecified) | – |
| 12.5 | 12.3 | 9.46 | C=CCc1ccc(OCCCCCC)c(-c2cc(CC=C)cc(CN3CCC(N)CC3)c2O)c1 | – |
| > 20 | > 20 | > 20 | C=CCc1ccc(O)c(-c2cc(CC=C)cc(CN3CCC(NC(=O)[C@H](N)CC(C)C)CC3)c2O)c1 | – |
| > 20 | > 20 | > 20 | C=CCc1ccc(O)c(-c2cc(CC=C)cc(CCN3CCC(N)CC3)c2O)c1 | – |
| > 20 | > 20 | > 20 | C=CCc1ccc(O)c(-c2cc(CC=C)cc(CCCCN3CCC(N)CC3)c2O)c1 | – |
